Reference: US20110245197A1, “HYPERSULFATED GLUCOPYRANOSIDES” (OPKO Health, Inc., priority 2010, published 2011)

Test system: allergic sheep (dual bronchoconstrictor responders to Ascaris suum antigen)
Test: Antigen-induced change in specific pulmonary airflow resistance (SRL): early (EAR) and late (LAR) airway response in allergic sheep
Format: in vivo
Experimental: Pulmonary airflow resistance was measured by taking allergic sheep previously verified as dual bronchoconstrictor responders to Ascaris suum antigen. The sheep were intubated with a cuffed nasotracheal tube and pulmonary airflow resistance (RL) was measured by the esophageal balloon catheter technique, while thoracic gas volume was measured by body plethysmography. Data were expressed as specific RL (SRL, defined as RL times thoracic gas volume (Vtg)). Airway responsiveness was determined by first securing cumulative dose response curves to inhaled carbachol (a constrictor agonist) by measuring SRL before and after inhalation of buffered saline and after each administration of 10 breaths of increasing concentrations of carbachol (0.25, 0.5, 1.0, 2.0 and 4.0% wt/vol solution). Airway responsiveness was measured by determining the cumulative provocation dose (PD400) of carbachol (in breath units) that increased SRL to 400% above baseline. One breath unit was defined as one breath of 1% carbachol solution.
To illustrate the effectiveness of the formulations according to the invention to treat and alleviate allergen related diseases and conditions, including but not limited to the specific diseases and conditions recited herein, sheep were assessed in multiple experiments which compared various formulations containing no added polymer or additive to animals which were provided formulations comprising a compound of formula I (as compound 1a) along with an optional additive selected from a polymer. To measure pulmonary airflow resistance, the sheep were intubated with a cuffed nasotracheal tube and pulmonary airflow resistance (RL) was measured by the esophageal balloon catheter technique, while thoracic gas volume was measured by body plethysmography. […] Data were expressed as specific RL (SRL defined as RL× thoracic gas volume (Vg).
For airway studies, each animal's baseline airway responsiveness (PD400)) was determined and then, on different experimental days, the test sheep underwent airway challenge with Ascaris suum antigen. […]

[1] = aerosol 0.5 mgs/kg (approximately 20 mgs), thirty minutes before antigen challenge, n=5 (FIG. 11)

With aluminum salt of octasulfated sucrose the LAR % protection [1] was 0%, the “effect on EAR” value [1] was “no significant effect” and the “effectiveness (general statement)” value (general statement in the description, supported by FIG. 11) was “not effective”.
